# Test results: ChEMBL document CHEMBL1649565, “Besifloxacin, a novel fluoroquinolone, has broad-spectrum in vitro activity against aerobic and anaerobic bacteria” (Antimicrob Agents Chemother, 2009)
# Activity calls are given as the source filed them. The rule behind the calls is not given here.
# Columns and labels:
# [1] = test system: Staphylococcus aureus; assay: Antibacterial activity against non-ciprofloxacin-susceptible and methicillin-susceptible Staphylococcus aureus by CLSI M100-S18 method; format: functional
# [2] = test system: Staphylococcus epidermidis; assay: Antibacterial activity against ciprofloxacin-susceptible and methicillin-resistant Staphylococcus epidermidis by CLSI M100-S18 method; format: functional
# [3] = test system: Staphylococcus epidermidis; assay: Antibacterial activity against non-ciprofloxacin-susceptible and methicillin-susceptible Staphylococcus epidermidis by CLSI M100-S18 method; format: functional
# [4] = test system: Staphylococcus haemolyticus; assay: Antibacterial activity against Staphylococcus haemolyticus by CLSI M100-S18 method; format: functional
# [5] = test system: Staphylococcus saprophyticus; assay: Antibacterial activity against Staphylococcus saprophyticus by CLSI M100-S18 method; format: functional
# [6] = test system: Staphylococcus warneri; assay: Antibacterial activity against Staphylococcus warneri by CLSI M100-S18 method; format: functional
# [7] = test system: Streptococcus agalactiae; assay: Antibacterial activity against Streptococcus agalactiae by CLSI M100-S18 method; format: functional
# [8] = Antibacterial activity against Lancefield Streptococcus sp. 'group C' by CLSI M100-S18 method; format: functional
# [9] = test system: Streptococcus sp.; assay: Antibacterial activity against Lancefield Streptococcus sp. group F by CLSI M100-S18 method; format: functional
# [10] = Antibacterial activity against Lancefield Streptococcus sp. 'group G' by CLSI M100-S18 method; format: functional
# [11] = test system: Streptococcus pneumoniae; assay: Antibacterial activity against levofloxacin-susceptible Streptococcus pneumoniae by CLSI M100-S18 method; format: functional
# [12] = test system: Streptococcus pyogenes; assay: Antibacterial activity against Streptococcus pyogenes by CLSI M100-S18 method; format: functional
# [13] = test system: Streptococcus equinus; assay: Antibacterial activity against Streptococcus bovis by CLSI M100-S18 method; format: functional
# [14] = test system: Streptococcus constellatus; assay: Antibacterial activity against Streptococcus constellatus by CLSI M100-S18 method; format: functional
# [15] = test system: Streptococcus intermedius; assay: Antibacterial activity against Streptococcus intermedius by CLSI M100-S18 method; format: functional
# [16] = test system: Streptococcus oralis; assay: Antibacterial activity against Streptococcus oralis by CLSI M100-S18 method; format: functional
# [17] = test system: Streptococcus salivarius; assay: Antibacterial activity against Streptococcus salivarius by CLSI M100-S18 method; format: functional
# [18] = test system: Streptococcus sanguinis; assay: Antibacterial activity against Streptococcus sanguinis by CLSI M100-S18 method; format: functional
# [19] = test system: Acinetobacter baumannii; assay: Antibacterial activity against Acinetobacter baumannii by CLSI M7-A7 method; format: functional
# [20] = test system: Acinetobacter calcoaceticus; assay: Antibacterial activity against Acinetobacter calcoaceticus by CLSI M7-A7 method; format: functional
# [21] = test system: Acinetobacter lwoffii; assay: Antibacterial activity against Acinetobacter lwoffii by CLSI M7-A7 method; format: functional
# [22] = test system: Citrobacter freundii; assay: Antibacterial activity against Citrobacter freundii by CLSI M7-A7 method; format: functional
# [23] = test system: Enterobacter cloacae; assay: Antibacterial activity against Enterobacter cloacae by CLSI M7-A7 method; format: functional
# [24] = test system: Klebsiella pneumoniae; assay: Antibacterial activity against Klebsiella pneumoniae by CLSI M7-A7 method; format: functional
# [25] = test system: Moraxella catarrhalis; assay: Antibacterial activity against Moraxella catarrhalis by CLSI M7-A7 method; format: functional
# [26] = test system: Morganella morganii; assay: Antibacterial activity against Morganella morganii by CLSI M7-A7 method; format: functional
# [27] = test system: Proteus mirabilis; assay: Antibacterial activity against Proteus mirabilis by CLSI M7-A7 method; format: functional
# [28] = test system: Serratia marcescens; assay: Antibacterial activity against Serratia marcescens by CLSI M7-A7 method; format: functional
# [29] = test system: Stenotrophomonas maltophilia; assay: Antibacterial activity against non-levofloxacin susceptible Stenotrophomonas maltophilia by CLSI M7-A7 method; format: functional
# [30] = test system: Staphylococcus aureus; assay: Antibacterial activity against ciprofloxacin-susceptible and methicillin-resistant Staphylococcus aureus assessed as percent susceptible isolates by CLSI M100-S18 method; format: functional
# [31] = test system: Staphylococcus aureus; assay: Antibacterial activity against non-ciprofloxacin-susceptible and methicillin-susceptible Staphylococcus aureus assessed as percent susceptible isolates by CLSI M100-S18 method; format: functional
# [32] = test system: Staphylococcus epidermidis; assay: Antibacterial activity against ciprofloxacin-susceptible and methicillin-resistant Staphylococcus epidermidis assessed as percent susceptible isolates by CLSI M100-S18 method; format: functional
# [33] = test system: Staphylococcus epidermidis; assay: Antibacterial activity against non-ciprofloxacin-susceptible and methicillin-susceptible Staphylococcus epidermidis assessed as percent susceptible isolates by CLSI M100-S18 method; format: functional
# [34] = test system: Staphylococcus haemolyticus; assay: Antibacterial activity against Staphylococcus haemolyticus assessed as percent susceptible isolates by CLSI M100-S18 method; format: functional
# [35] = test system: Staphylococcus hominis; assay: Antibacterial activity against Staphylococcus hominis assessed as percent susceptible isolates by CLSI M100-S18 method; format: functional
# [36] = test system: Staphylococcus saprophyticus; assay: Antibacterial activity against Staphylococcus saprophyticus assessed as percent susceptible isolates by CLSI M100-S18 method; format: functional
# [37] = test system: Staphylococcus warneri; assay: Antibacterial activity against Staphylococcus warneri assessed as percent susceptible isolates by CLSI M100-S18 method; format: functional
# [38] = test system: Streptococcus pneumoniae; assay: Antibacterial activity against levofloxacin susceptible Streptococcus pneumoniae assessed as percent susceptible isolates by CLSI M100-S18 method; format: functional
# [39] = test system: Klebsiella aerogenes; assay: Antibacterial activity against Enterobacter aerogenes assessed as percent susceptible isolates by CLSI M7-A7 method; format: functional
# [40] = test system: Enterobacter cloacae; assay: Antibacterial activity against Enterobacter cloacae assessed as percent susceptible isolates by CLSI M7-A7 method; format: functional
# [41] = test system: Haemophilus influenzae; assay: Antibacterial activity against ciprofloxacin-susceptible Haemophilus influenzae assessed as percent susceptible isolates by CLSI M7-A7 method; format: functional
# [42] = test system: Klebsiella pneumoniae; assay: Antibacterial activity against Klebsiella pneumoniae assessed as percent susceptible isolates by CLSI M7-A7 method; format: functional
# [43] = test system: Proteus mirabilis; assay: Antibacterial activity against Proteus mirabilis assessed as percent susceptible isolates by CLSI M7-A7 method; format: functional
# [44] = test system: Proteus vulgaris; assay: Antibacterial activity against Proteus vulgaris assessed as percent susceptible isolates by CLSI M7-A7 method; format: functional
# [45] = test system: Serratia marcescens; assay: Antibacterial activity against levofloxacin susceptible Serratia marcescens assessed as percent susceptible isolates by CLSI M7-A7 method; format: functional
# [46] = test system: Stenotrophomonas maltophilia; assay: Antibacterial activity against levofloxacin-susceptible Stenotrophomonas maltophilia by CLSI M7-A7 method; format: functional
# [47] = test system: Staphylococcus epidermidis
compound,measurement,setting,value
NC[C@H]1O[C@H](O[C@H]2[C@H](O)[C@@H](O[C@H]3O[C@H](CO)[C@@H](O)[C@H](N)[C@H]3O)[C@H](N)C[C@@H]2N)[C@H](N)C[C@@H]1O [TOBRAMYCIN],MIC50,[1],1 µg/mL
same,MIC90,[1],> 32 µg/mL
same,MIC50,[2],0.03 µg/mL
same,MIC50,[3],2 µg/mL
same,MIC50,[4],2 µg/mL
same,MIC90,[4],32 µg/mL
same,MIC50,[5],0.015 µg/mL
same,MIC90,[5],0.06 µg/mL
same,MIC50,[6],0.06 µg/mL
same,MIC90,[6],8 µg/mL
same,MIC50,[7],0.06 µg/mL
same,MIC90,[7],> 8 µg/mL
same,MIC50,[8],0.06 µg/mL
same,MIC90,[8],> 8 µg/mL
same,MIC50,[9],0.06 µg/mL
same,MIC90,[9],> 8 µg/mL
same,MIC50,[10],0.06 µg/mL
same,MIC90,[10],> 8 µg/mL
same,MIC50,[11],8 µg/mL
same,MIC90,[11],16 µg/mL
same,MIC50,[12],16 µg/mL
same,MIC90,[12],16 µg/mL
same,MIC50,[13],0.06 µg/mL
same,MIC90,[13],> 8 µg/mL
same,MIC50,[14],0.06 µg/mL
same,MIC90,[14],> 8 µg/mL
same,MIC50,[15],0.06 µg/mL
same,MIC90,[15],> 8 µg/mL
same,MIC50,[16],0.06 µg/mL
same,MIC90,[16],> 8 µg/mL
same,MIC50,[17],0.06 µg/mL
same,MIC90,[17],> 8 µg/mL
same,MIC50,[18],0.06 µg/mL
same,MIC90,[18],> 8 µg/mL
same,MIC50,[19],4 µg/mL
same,MIC90,[19],> 64 µg/mL
same,MIC50,[20],0.25 µg/mL
same,MIC90,[20],1 µg/mL
same,MIC50,[21],0.06 µg/mL
same,MIC90,[21],0.5 µg/mL
same,MIC50,[22],0.25 µg/mL
same,MIC90,[22],0.5 µg/mL
same,MIC50,[23],0.25 µg/mL
same,MIC90,[23],1 µg/mL
same,MIC50,[24],0.25 µg/mL
same,MIC90,[24],1 µg/mL
same,MIC50,[25],0.03 µg/mL
same,MIC90,[25],0.03 µg/mL
same,MIC50,[26],1 µg/mL
same,MIC90,[26],4 µg/mL
same,MIC50,[27],1 µg/mL
same,MIC90,[27],4 µg/mL
same,MIC50,[28],0.5 µg/mL
same,MIC90,[28],1 µg/mL
same,MIC,[29],> 8 µg/mL
same,Activity,[30],68.4%
same,Activity,[31],27.3%
same,Activity,[32],33.3%
same,Activity,[33],16.7%
same,Activity,[34],26.7%
same,Activity,[35],16%
same,Activity,[36],54.5%
same,Activity,[37],34%
same,Activity,[38],inactive
same,Activity,[39],100%
same,Activity,[40],100%
same,Activity,[41],inactive
same,Activity,[42],100%
same,Activity,[43],100%
same,Activity,[44],100%
same,Activity,[45],100%
same,MIC,[46],2 µg/mL
same,MIC90,[47],inactive
